The Kd is the free concentration of one partner at which half of the binding sites on the other are occupied at equilibrium, for simple one-to-one binding.

The text below walks through data of paper PMC2915760 (Bioorganic & medicinal chemistry, 2010).

This experiment concerns the target T1, Lyp-CCPGCC (lymphoid-specific protein tyrosine phosphatase, PTPN22, engineered insertion mutant) (Homo sapiens, UniProt Q9Y2R2, INS199CCPGCC).
T1 sequence (Q9Y2R2 with tags, fused parts or gaps INS199CCPGCC): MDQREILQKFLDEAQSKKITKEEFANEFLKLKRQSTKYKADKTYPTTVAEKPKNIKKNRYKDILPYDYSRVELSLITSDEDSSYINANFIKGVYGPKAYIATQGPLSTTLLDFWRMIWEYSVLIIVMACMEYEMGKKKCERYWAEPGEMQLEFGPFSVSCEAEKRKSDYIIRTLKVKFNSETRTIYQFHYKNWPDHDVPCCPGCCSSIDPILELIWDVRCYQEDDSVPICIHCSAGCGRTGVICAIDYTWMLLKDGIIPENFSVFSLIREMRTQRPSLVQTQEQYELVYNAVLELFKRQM
The experiment in a line: FlAsH fluorescence titration with purified Lyp-CCPGCC. The experiment is classed as binding.

Regarding `O=C1OC2(c3ccccc31)c1ccc(O)c([As]3SCCS3)c1Oc1c2ccc(O)c1[As]1SCCS1` [FlAsH], the equilibrium dissociation constant (Kd) amounted to 68 nM.
